Read-outs that look alike come from different tables or passages of the source.
Key:
[1] = target: T1, GppNp-loaded HIS-KRAS (G12D, aa 1-169) / cRAF RBD (Homo sapiens, UniProt P01116, G12D); assay: GTP-KRAS and cRAF interaction assay; assay type: binding; conditions: HTRF, 2 hours at 25° C.
T1 construct: GppNp-loaded HIS-KRAS (G12D, aa 1-169)
Procedure: 2. GTP-KRAS and cRAF Interaction Assay
GppNp-loaded HIS-KRAS (G12D, aa 1-169) was pre-incubated with a compound in the presence of 200 µM GTP in a 384-well plate (Greiner) for 15 min, then cRAF RBD (GST tag, aa 50-132, CreativeBioMart), MAb Anti GST-d2 (Cisbio) and MAb Anti 6HIS-Tb cryptate Gold (Cisbio) were added to the assay wells (Final concentration: 2.0 nM GppNp-loaded HIS-KRAS (G12D), 100 μM GTP, 35 nM cRAF RBD, 1 μg/mL MAb Anti GST-d2, 52.5 ng/mL MAb Anti 6HIS-Tb cryptate Gold) and incubated for 2 hours at 25° C. Wells containing same percent of DMSO served as vehicle control, and wells without KRAS served as low control. HTRF signals were read on Tecan Spark multimode microplate reader and HTRF ratios were calculated under manufacturer's instructions. The percent of activation of compounds treated wells were normalized between vehicle control and low control (% Activation=(HTRF ratioCompound treated−HTRF ratioLow control)/(HTRF ratioVehicle control−HTRF ratioLow control)*100). Then the data were analyzed either by fitting a 4-parameter logistic model or by Excel to calculate IC50 values.

[2] = test system: AGS; assay: Cell growth inhibition assay (AGS); assay type: cell-based; conditions: 6 days incubation, CellTiter-Glo
Procedure: (§1) 4. Cell Growth Inhibition Assay
AGS cultured in F12K medium (Gibco) containing 10% fetal bovine serum (Gibco). Cells in culture medium were plated in 96-well plates at a concentration of 500 cells/well ([…]) and allowed to attach overnight.
(§2) The next day, compounds were diluted in culture medium and added to the plates. After 6 days incubation in a 37° C./5% CO2 cell incubator, the cell viability was detected by CellTiter-Glo® Luminescent Cell Viability Assay kit (Promega). Luminescent signals were read on Tecan Spark multimode microplate reader and analyzed using a 4-parameter logistic model to calculate IC50 values.

[3] = test system: AsPC-1; assay: Cell growth inhibition assay (AsPC-1); assay type: cell-based; conditions: AsPC-1, 6 days incubation, CellTiter-Glo
Procedure: as §1
AsPC-1 cultured in RPMI-1640 medium (Gibco) containing 10% fetal bovine serum (Gibco). Cells in culture medium were plated in 96-well plates at a concentration of 1000 cells/well ([…]) and allowed to attach overnight.
as §2

[4] = target: T2, GDP-loaded HIS-KRAS (G12D, aa 1-169) (Homo sapiens, UniProt P01116, G12D); assay: SOS1 catalyzed nucleotide exchange assay; assay type: biochemical; conditions: SOS1 ExD, TR-FRET, 4 hours at 25° C.
T2 construct: GDP-loaded HIS-KRAS (G12D, aa 1-169)
T2 sequence (P01116 1-169 isoform P01116-2 G12D): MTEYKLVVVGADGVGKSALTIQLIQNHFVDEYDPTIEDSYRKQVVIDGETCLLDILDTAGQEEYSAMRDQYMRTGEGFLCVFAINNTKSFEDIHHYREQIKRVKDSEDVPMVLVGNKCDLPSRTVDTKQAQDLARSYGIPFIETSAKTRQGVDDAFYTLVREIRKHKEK
Procedure: 1. SOS1 Catalyzed Nucleotide Exchange Assay
GDP-loaded HIS-KRAS (G12D, aa 1-169) was pre-incubated with a compound in the presence of 10 nM GDP in a 384-well plate (Greiner) for 15 min, then purified SOS1 ExD (Flag tag, aa 564-1049), BODIPY™ FL GTP (Invitrogen) and MAb (monoclonal antibody) Anti 6HIS-Tb cryptate Gold (Cisbio) were added to the assay wells (Final concentration: 1.5 nM GDP-loaded HIS-KRAS (G12D), 5 nM GDP, 0.5 μM SOS1 ExD, 80 nM BODIPY™ FL GTP, 52.5 ng/mL MAb Anti 6HIS-Tb cryptate Gold) and incubated for 4 hours at 25° C. Wells containing same percent of DMSO served as vehicle control, and wells without KRAS served as low control. TR-FRET signals were read on Tecan Spark multimode microplate reader. The parameters were F486: Excitation 340 nm, Emission 486 nm, Lag time 100 μs, Integration time 200 μs; F515: Excitation 340 nm, Emission 515 nm, Lag time 100 μs, Integration time 200 μs. TR-FRET ratios for each individual wells were calculated by equation: TR-FRET ratio=(Signal F515/Signal F486)*10000. The percent of activation of compounds treated wells were normalized between vehicle control and low control (% Activation=(TR-FRET ratioCompound treated−TR-FRET ratioLow control)/(TR-FRET ratioVehicle control−TR-FRET ratioLow control)*100%). Then the data were analyzed either by fitting a 4-parameter logistic model or by Excel to calculate IC50 values.

[5] = test system: AGS cells expressing KRAS G12D; assay: Phospho-ERK1/2(THR202/TYR204) HTRF assay; assay type: cell-based; conditions: 2 hours incubation, read-out: AGS p-ERK IC50
Procedure: AGS cells expressing KRAS G12D were cultured in F12K medium (Gibco) containing 10% fetal bovine serum (Gibco). The AGS cells in culture medium were seeded in 96-well plates at a concentration of 40,000 cells/well and then put in a 37° C./5% CO2 cell incubator to incubate overnight. The next day, culture medium was removed and the compound diluted in assay medium (F12K, 0.1% FBS) was added in each well. After 2 hours incubation in a 37° C./5% CO2 cell incubator, the assay medium in 96-well plates was removed, then 50 μL of 1× blocking reagent-supplemented lysis buffer (Cisbio) was added and the plates were incubated at 25° C. for 45 min with shaking. 10 μL of cell lysates from the 96-well plates were transferred to a 384-well plate (Greiner) containing 2.5 μL/well HTRF® pre-mixed antibodies (Cisbio 64AERPEH). Incubate 4 hours at 25° C. and then read HTRF signals on Tecan Spark multimode microplate reader. The data were analyzed using a 4-parameter logistic model to calculate IC50 values.

T1 sequence (P01116 1-169 isoform P01116-2 G12D): as above

| Structure (SMILES) | IC50 [1] | IC50 ([2]; Homo sapiens, 144 h) | IC50 ([3]; Homo sapiens, ASPC1, 144 h) | IC50 [4] | IC50 ([5]; Homo sapiens) | IC50 [2] | IC50 [3] | IC50 [5] |
| --- | --- | --- | --- | --- | --- | --- | --- | --- |
| C#Cc1cccc2cc(O)cc(-c3c(F)cc4c(N5CC6CCC(C5)N6)nc(OCC5(CN6CCOCC6)CC5)nc4c3Cl)c12 [Compound 43] | 417 nM | 18.3 nM | 43.6 nM | 18 nM | 17.8 nM |  |  |  |
| C#Cc1cccc2cc(O)cc(-c3c(CCC#N)cc4c(N5CC6CCC(C5)N6)nc(OCC5(CN6CCOCC6)CC5)nc4c3F)c12 [Compound 44] | 18.2 nM | 13.2 nM | 185 nM | 2.14 nM | 3.81 nM |  |  |  |
| C#Cc1cccc2cc(O)cc(-c3c(C4CC4)cc4c(N5CC6CCC(C5)N6)nc(OCC5(CN6CCOCC6)CC5)nc4c3F)c12 [Compound 38] | 126 nM | 51 nM | 141 nM | 13.8 nM | 19.8 nM |  |  |  |
| C#Cc1cccc2cc(O)cc(-c3cc4nc(OCC5(CN6CCOCC6)CC5)nc(N5CC6CCC(C5)N6)c4cc3CC)c12 [Compound 109] | 140 nM | 28.3 nM | 86.9 nM | 48.5 nM | 51.9 nM |  |  |  |
| Oc1cc(-c2c(Cl)cc3c(N4CC5CCC(C4)N5)nc(OCC45CCCN4C[C@H](F)C5)nc3c2F)c2c(Cl)cccc2c1 (some centres unmarked) [Compound 90] | 84.8 nM | 14.6 nM | 100 nM | 5.35 nM | 12.4 nM |  |  |  |
| C#Cc1cccc2cc(O)cc(-c3c(C)cc4c(N5CC6CCC(C5)N6)nc(OCC5(CN6CCOCC6)CC5)nc4c3F)c12 (single isomer, unassigned) [Compound 40B] | 22.4 nM |  |  | 0.824 nM |  | 4.92 nM | 45.8 nM | 1.97 nM |
| C#Cc1c(F)ccc2cc(O)cc(-c3c(Cl)cc4c(C5CC6CCC(C5)N6)nc(OC[C@@]56CCCN5C[C@H](F)C6)nc4c3F)c12 (some centres unmarked) [Compound 100] | 55 nM | 5.68 nM | 33 nM | 5.93 nM | 1.71 nM |  |  |  |
| C#Cc1cccc2cc(O)cc(-c3c(F)cc4c(N5CC6CCC(C5)N6)nc(OCC5(CN6CCOCC6)CC5)nc4c3F)c12 [Compound 41] | 211 nM | 6.96 nM | 18.7 nM | 9.17 nM | 2.63 nM |  |  |  |
| C#Cc1cccc2cc(O)cc(-c3ccc4c(N5CC6CC(C5)N6)nc(OCC5(CN6CCOCC6)CC5)nc4c3F)c12 [Compound 55] | 147 nM | 76.9 nM | 649 nM | 11.6 nM | 27.5 nM |  |  |  |
| C#Cc1cccc2cc(O)cc(-c3c(Cl)cc4c(N5CC6CCC(C5)N6)nc(OCC5(CN6CCOCC6)CC5)nc4c3F)c12 (single isomer, unassigned) [Compound 35B] | 111 nM |  |  | 5.94 nM |  | 13.4 nM | 39.5 nM | 6.2 nM |
| C#Cc1c(F)ccc2cc(O)cc(-c3ccc4c(N5CC6CCC(C5)N6)nc(OCC5(CN6CCC(O)CC6)CC5)nc4c3F)c12 [Compound 76] | 64.8 nM | 72.1 nM | 671 nM | 4.33 nM | 8.3 nM |  |  |  |
| C#Cc1cccc2cc(O)cc(-c3ccc4c(N5CC6CCC(C5)N6)nc(OCC5(CN6CCC[C@H](F)C6)CC5)nc4c3F)c12 [Compound 113] | 124 nM |  |  | 12.6 nM |  | 4.35 nM | 18.4 nM | 15.9 nM |
| C#Cc1cccc2cc(O)cc(-c3c(Cl)cc4c(N5CC6CCC(C5)N6)nc(OCC5(CN6CCOCC6)CC5)nc4c3Cl)c12 [Compound 107] | 524 nM | 107 nM | 282 nM | 4.11 nM | 140 nM |  |  |  |
| C#Cc1cccc2cc(O)cc(-c3c(C#N)cc4c(N5CC6CCC(C5)N6)nc(OCC5(CN6CCOCC6)CC5)nc4c3F)c12 (single isomer, unassigned) [Compound 60B] | 62.9 nM |  |  | 12.5 nM |  | 13.1 nM | 207 nM | 6.96 nM |
| Cc1ccc2cc(O)cc(-c3ccc4c(N5CC6CCC(C5)N6)nc(OCC5(CN6CCOCC6)CC5)nc4c3F)c2c1 [Compound 64] | 329 nM |  |  | 45.4 nM |  | 73 nM | 178 nM | 61.8 nM |
| C#Cc1cccc2cc(O)cc(-c3ccc4c(N5CC6CCC(C5)N6)nc(OCC5(CN6CCOC[C@H]6C)CC5)nc4c3F)c12 [Compound 115] | 121 nM | 4.23 nM | 7.52 nM | 28.2 nM | 4.23 nM |  |  |  |
| C#Cc1cccc2cc(O)cc(-c3ccc4c(N5CC6CCC(C5)N6)nc(OCC5(CN(C)CCO)CC5)nc4c3F)c12 [Compound 86] | 97 nM | 60.3 nM | 528 nM | 20.9 nM | 7.4 nM |  |  |  |
| CCc1cccc2cc(O)cc(-c3ccc4c(N5CC6CCC(C5)N6)nc(OCC5(CN6CCOCC6)CC5)nc4c3F)c12 [Compound 47] | 262 nM | 68 nM | 76.3 nM | 7.21 nM | 29.6 nM |  |  |  |
| C#Cc1cccc2cc(O)cc(-c3c(F)cc4c(N5CC6CCC(C5)N6)nc(OCC5(CN6CC[S+]([O-])CC6)CC5)nc4c3F)c12 [Compound 89] | 1940 nM | 14.9 nM | 96.6 nM | 20.5 nM | > 1000 nM |  |  |  |
| C#Cc1cccc2cc(O)cc(-c3ccc4c(N5CC6CCC(C5)N6)nc(OCC5(CN6CCOCC6)CC5)nc4c3F)c12 [Compound 34] | 12.6 nM | 11.1 nM | 19.1 nM | 8.73 nM | 2.16 nM |  |  |  |
| C#Cc1cccc2cc(O)cc(-c3c(Cl)cc4c(N5CC6CCC(C5)N6)nc(OCC5(CN6CCOCC6)CC5)nc4c3Cl)c12 (single isomer, unassigned) [Compound 107B] | 399 nM | 150 nM | 395 nM | 3.16 nM | 57.6 nM |  |  |  |
| C#Cc1cccc2cc(O)cc(-c3c(C(F)(F)F)cc4c(N5CC6CCC(C5)N6)nc(OCC5(CN6CCOCC6)CC5)nc4c3F)c12 (single isomer, unassigned) [Compound 98B] | 11.2 nM |  |  | 0.826 nM |  | 6.03 nM | 36.7 nM | 11.6 nM |

Source: patent US20240059710A1, “KRAS G12D Inhibitors” (Jacobio Pharmaceuticals Co., Ltd., priority 2020, published 2024)
